From US8889621B2, “Inhibiting binding of FGF23 to the binary FGFR-Klotho complex for the treatment of hypophosphatemia” (New York University, priority 2009, dated 2014)
Where two headings read alike, the source gives them in different places. Peptide text beside a SMILES is read from it.

B1: FGF23^28-251: human FGF23 (A28 to I251), bioactive full-length ligand expressed in E. coli (protein, listed as Homo sapiens)
chain: ASPLLGSSWGGLIHLYTATARNSYHLQIHKNGHVDGAPHQTIYSALMIRSEDAGFVVITGVMSRRYLCMDFRGNIFGSHYFDPENCRFQHQTLENGYDVYHSPQYHFLVSLGRAKRAFLPGMNPPPYSQFLSRRNEIPLIHFNTPIPRRHTRSAEDDSERDPLNVLKPRARMTPAPASCSQELPSAEDNSPMASDPLGVVRGGRVNTHAGGTGPEGCRPFAKFI
B2: FGF23^180-251: 72-amino acid C-terminal tail of human FGF23 (S180 to I251), expressed in E. coli (protein, listed as Homo sapiens)
chain: SAEDDSERDPLNVLKPRARMTPAPASCSQELPSAEDNSPMASDPLGVVRGGRVNTHAGGTGPEGCRPFAKFI

System: opossum kidney cell line OKP
Format: cell-based
Conditions: for effect on phosphate uptake when applied alone: 500 nM
Text: The effects of FGF23 proteins/peptides on sodium-coupled phosphate uptake were studied in the opossum kidney cell line OKP (Miyauchi et al., “Stimulation of transient elevations in cytosolic Ca2+ is related to inhibition of Pi transport in OK cells,” Am J Physiol 259(3 Pt 2):[…]-493 (1990), which is hereby incorporated by reference in its entirety). The cell line has many characteristics of renal proximal tubule epithelium, including sodium gradient-dependent phosphate transport and sensitivity to parathyroid hormone (Miyauchi et al., “Stimulation of transient elevations in cytosolic Ca2+ is related to inhibition of Pi transport in OK cells,” Am J Physiol 259(3 Pt 2):[…]-493 (1990), which is hereby incorporated by reference in its entirety). OKP cells also express FGFR1-4 and Klotho (see next methods section). OKP cells were grown in culture as described previously (Hu et al., “Dopamine Acutely Stimulates Na+/H+ Exchanger (NHE3) Endocytosis Via Clathrin-coated Vesicles: Dependence on Protein Kinase A-mediated NHE3 Phosphorylation,” J Biol Chem 276(29):26906-26915 (2001), which is hereby incorporated by reference in its entirety). Cells grown in 24-well plates were stimulated for 4 h with FGF23^28-251 (0.5 to 1 nM), FGF23^180-251 (500 nM), FGF23^180-205 (500 nM), or mixtures of FGF23^28-251 (1 nM) with either FGF23^180-251 (1 to 500 nM) or FGF23^180-205 (1 to 500 nM). The 1 nM concentration of FGF23^28-251 was chosen for competition experiments with FGF23 C-terminal peptides because at this concentration, half-maximum inhibition of phosphate uptake is reached. After stimulation, the cells were rinsed with Na^+-free solution followed by 5 min incubation with uptake solution containing 100 μM KH2^32PO4 (2 mCi/ml, Perkin Elmer). The reaction was stopped by aspiration of uptake solution and washing cells with ice-cold stop solution (10 mM HEPES pH 7.4, 140 mM NaCl, 1 mM MgCl2). Each transport reaction was performed in triplicates.

Molecule | effect on phosphate uptake when applied alone (4 h) | IC50 (4 h) | antagonism of FGF23 inhibition of phosphate uptake (FGF23^28-251 1 nM, 4 h stimulation) | IC50 (4 h stimulation, read-out: concentration at which half-maximum inhibition of phosphate uptake is reached)
CSCC[C@H](NC(=O)[C@H](CCCNC(=N)N)NC(=O)[C@H](C)NC(=O)[C@H](CCCNC(=N)N)NC(=O)[C@@H]1CCCN1C(=O)[C@H](CCCCN)NC(=O)[C@H](CC(C)C)NC(=O)[C@@H](NC(=O)[C@H](CC(N)=O)NC(=O)[C@H](CC(C)C)NC(=O)[C@@H]1CCCN1C(=O)[C@H](CC(=O)O)NC(=O)[C@H](CCCNC(=N)N)NC(=O)[C@H](CCC(=O)O)NC(=O)[C@H](CO)NC(=O)[C@H](CC(=O)O)NC(=O)[C@H](CC(=O)O)NC(=O)[C@H](CCC(=O)O)NC(=O)[C@H](C)NC(=O)[C@@H](N)CO)C(C)C)C(=O)N[C@H](C(=O)N1CCC[C@H]1C(=O)N[C@@H](C)C(=O)N1CCC[C@H]1C(=O)N[C@@H](C)C(=O)N[C@@H](CO)C(=O)O)[C@@H](C)O [FGF23^180-205] (H-SAEDDSERDPLNVLKPRARMTPAPAS-OH; N-terminus and C-terminus assumed) | neither of the two FGF23 C-terminal peptides altered phosphate uptake | 100 to 500 nM | similar, albeit less potent antagonistic effect | –
B1 | – | – | – | 1 nM
B2 | neither of the two FGF23 C-terminal peptides altered phosphate uptake | – | – | –
